Results: ChEMBL document CHEMBL4483862, “Open-source discovery of chemical leads for next-generation chemoprotective antimalarials” (2018)

System: Plasmodium berghei
Experiment: Luciferase/luciferin-expressing antifolate-resistant parasites were used to infect a culture of HepG2 cells that were pre-incubated with compounds. Infected hepatocytes emit light due to the luciferase reaction. Assay results are presented as the percent inhibition of light emission compared to control. […]
Format: functional
Details: sporozoite; for IC90: read-out: LUCIFERASE INFECTION ASSAY - IC90
[1] = read-out: LUCIFERASE INFECTION ASSAY - IC50

| Structure (SMILES) | IC90 [µM] | IC50 [1] [µM] | also measured |
| --- | --- | --- | --- |
| CC(=O)c1cccc(-c2cnc3ccc(Cc4ccc(F)cc4)nn23)c1 | 5.55 | – | IC50 (HEPG2TOX_HILL_SLOPE 0.753, HEPG2TOX_R_SQUARED 0.0911, PBLUC_HILL_SLOPE 6.85, PBLUC_R_SQUARED 0.304, read-out: LUCIFERASE INFECTION ASSAY - IC50): 4.02 µM |
| C=C(C)C1CC=C(C)/C(=N\NC(=O)C(=O)N/N=C2/CC(C(=C)C)CC=C2C)C1 (centres undefined) | > 10 | > 10 | – |
| O=C(NC1CC1)c1ccc(N2CCN(C(c3ccc(F)cc3)c3ccc(F)cc3)CC2)nc1 | > 10 | – | IC50 (PBLUC_HILL_SLOPE 2.42, PBLUC_R_SQUARED 0.524, read-out: LUCIFERASE INFECTION ASSAY - IC50): 4.87 µM |
| N#Cc1c(SCC(=O)c2ccccc2)nc2c(c1-c1cccs1)CCCC2 | > 8.45 | – | IC50 (FFLUC_HILL_SLOPE 16.5, FFLUC_R_SQUARED 0.662, PBLUC_HILL_SLOPE 1.37, PBLUC_R_SQUARED 0.669, read-out: LUCIFERASE INFECTION ASSAY - IC50): 3.67 µM |
| CCCN(CC(=O)N1N=C(c2ccc(C)cc2)CC1c1ccco1)Cc1nnc(-c2ccco2)o1 (centres undefined) | > 10 | > 10 | – |
| O=C(COC(=O)c1cc(-c2ccccc2)c(N2CCOCC2)s1)NCc1cccs1 | 7.35 | – | IC50 (HEPG2TOX_HILL_SLOPE 2.63, HEPG2TOX_R_SQUARED 0.904, PBLUC_HILL_SLOPE 1.69, PBLUC_R_SQUARED 0.47, read-out: LUCIFERASE INFECTION ASSAY - IC50): 2 µM |
| Cn1ccc(NC(=O)c2cccc(S(=O)(=O)N(Cc3ccccc3)c3ccccc3Cl)c2)n1 | > 10 | – | IC50 (PBLUC_HILL_SLOPE 2.72, PBLUC_R_SQUARED 0.559, read-out: LUCIFERASE INFECTION ASSAY - IC50): 4.88 µM |
| Cc1nc(-c2ccccc2)sc1C(=O)OC(C)C(=O)N1CCNC1=O (centres undefined) | > 10 | > 10 | – |
| O=C(Nc1ccc(Cl)cc1)Nc1nc(-c2cc(Cl)sc2Cl)cs1 | 7.79 | – | IC50 (FFLUC_HILL_SLOPE 2.44, FFLUC_R_SQUARED 0.604, PBLUC_HILL_SLOPE 2.52, PBLUC_R_SQUARED 0.549, read-out: LUCIFERASE INFECTION ASSAY - IC50): 3.26 µM |
| Cc1cc(/C=C/C(=O)Nc2ccc(S(=O)(=O)NC3=NCCCCC3)cc2)c(C)n1-c1ccccc1 | 6.38 | – | IC50 (FFLUC_HILL_SLOPE 1.16, FFLUC_R_SQUARED 0.166, PBLUC_HILL_SLOPE 1.89, PBLUC_R_SQUARED 0.7, read-out: LUCIFERASE INFECTION ASSAY - IC50): 2 µM |
| Cc1cc(C)c(-c2csc(NC(=O)c3ccccc3SCC(=O)NCC3CCCCC3)n2)cc1C | 4.99 | – | IC50 (FFLUC_HILL_SLOPE 1.8, FFLUC_R_SQUARED 0.211, HEPG2TOX_HILL_SLOPE 0.456, HEPG2TOX_R_SQUARED 0.807, PBLUC_HILL_SLOPE 10.4, PBLUC_R_SQUARED 0.477, read-out: LUCIFERASE INFECTION ASSAY - IC50): 4.04 µM |
| COc1ccc(COC(=O)Cc2c(C)[nH]c(-c3ccccn3)nc2=O)cc1OC | 8.13 | – | IC50 (PBLUC_HILL_SLOPE 4.54, PBLUC_R_SQUARED 0.664, read-out: LUCIFERASE INFECTION ASSAY - IC50): 5.01 µM |
| CN(C)c1cccc(-c2cnc3sc(NCc4ccc(F)cc4)nn23)c1 | > 8.98 | – | IC50 (FFLUC_HILL_SLOPE 4.01, FFLUC_R_SQUARED 0.615, PBLUC_HILL_SLOPE 7.46, PBLUC_R_SQUARED 0.677, read-out: LUCIFERASE INFECTION ASSAY - IC50): 7.83 µM |
| Oc1c(C(c2ccc(F)cc2)N2CCCCC2)cc(Cl)c2cccnc12 (centres undefined) | > 10 | – | IC50 (PBLUC_HILL_SLOPE 3.21, PBLUC_R_SQUARED 0.483, read-out: LUCIFERASE INFECTION ASSAY - IC50): 6.21 µM |
| CCOC(=O)c1c(NC(=O)C(C)OC(=O)c2ccccc2Sc2ccccc2C#N)sc2c1CCCC2 (centres undefined) | > 10 | > 10 | – |
| Cc1ccc(Cn2c3nc(C#N)c(C#N)nc3c3c(=O)nc(C)[nH]c32)cc1 | > 10 | > 10 | – |
| O=C(Nc1ccccc1O)c1ccc(Cn2ccnc2)cc1 | 6.19 | – | IC50 (PBLUC_HILL_SLOPE 1.6, PBLUC_R_SQUARED 0.598, read-out: LUCIFERASE INFECTION ASSAY - IC50): 1.57 µM |
| CCOC(=O)C(c1ccc(Cl)cc1)N1CCN(C(=O)/C=C/c2ccc(OC)c(OC)c2)CC1 (centres undefined) | 3.62 | – | IC50 (PBLUC_HILL_SLOPE 18.4, PBLUC_R_SQUARED 0.744, read-out: LUCIFERASE INFECTION ASSAY - IC50): 3.21 µM |
| Cc1cc2ccccn2c1C(=O)c1nc(S(C)(=O)=O)ncc1Cl | > 10 | – | IC50 (HEPG2TOX_HILL_SLOPE 4.52, HEPG2TOX_R_SQUARED 0.995, PBLUC_HILL_SLOPE 10.9, PBLUC_R_SQUARED 0.162, read-out: LUCIFERASE INFECTION ASSAY - IC50): 8.19 µM |
| CC1Cc2cc(C3=NNC(=Nc4ccccc4[N+](=O)[O-])SC3)ccc2N1S(C)(=O)=O (centres undefined) | > 10 | 5.32 | – |
| COc1cc(NC(=O)CN2CC=C(c3c[nH]c4ccccc34)CC2)cc(OC)c1OC | > 10 | > 10 | – |

| Structure (SMILES) | IC90 [µM] | IC50 [1] [µM] | also measured |
| --- | --- | --- | --- |
| COc1cccc(-c2cn3c(-c4ccccc4)cnc3cn2)c1F | 10.2 | – | IC50 (PBLUC_HILL_SLOPE 10.4, PBLUC_R_SQUARED 0.353, read-out: LUCIFERASE INFECTION ASSAY - IC50): 8.27 µM |
| COc1ccc(/C=C2\Oc3cc(O)cc(C)c3C2=O)c(OC)c1 | > 10.6 | – | IC50 (HEPG2TOX_HILL_SLOPE 7.92, HEPG2TOX_R_SQUARED 0.287, PBLUC_HILL_SLOPE 2.15, PBLUC_R_SQUARED 0.542, read-out: LUCIFERASE INFECTION ASSAY - IC50): 6.5 µM |
| N#Cc1cccc(/C=C/C(=O)c2ccc(S(=O)(=O)N3CCCC3)cc2)c1 | > 10 | > 10 | – |
| Cc1nn(Cc2ccccc2Cl)c(C)c1C(=O)OCC(=O)N1CCN(c2ccccc2)CC1 | > 10 | > 10 | – |
| ONC(=NC(=S)Nc1cc(Cl)ccc1Cl)c1ccccn1 | 9.52 | – | IC50 (HEPG2TOX_HILL_SLOPE 1.13, HEPG2TOX_R_SQUARED 0.776, PBLUC_HILL_SLOPE 15.8, PBLUC_R_SQUARED 0.357, read-out: LUCIFERASE INFECTION ASSAY - IC50): 8.29 µM |
| CC1(c2ccccc2)NC(=O)N(NC(=O)c2ccc(-c3ccccc3)cc2)C1=O (centres undefined) | > 10 | – | IC50 (PBLUC_HILL_SLOPE 2.29, PBLUC_R_SQUARED 0.368, read-out: LUCIFERASE INFECTION ASSAY - IC50): 6.98 µM |
| CCn1c(SCc2csc(N(C(C)=O)c3cccc(C)c3)n2)nc2ccccc2c1=O | > 10 | – | IC50 (PBLUC_HILL_SLOPE 13.6, PBLUC_R_SQUARED 0.153, read-out: LUCIFERASE INFECTION ASSAY - IC50): > 10 µM |
| COc1cc(OC)cc(-c2cnc3cnc(-c4ccccc4C)cn23)c1 | 2.62 | – | IC50 (HEPG2TOX_HILL_SLOPE 1.68, HEPG2TOX_R_SQUARED 0.933, PBLUC_HILL_SLOPE 2.21, PBLUC_R_SQUARED 0.835, read-out: LUCIFERASE INFECTION ASSAY - IC50): 0.97 µM |
| CC(C)c1cccc(N2CC(C(=O)N3CCC(C(N)=O)CC3)CC2=O)c1 (centres undefined) | > 10 | > 10 | – |
| CCC1Oc2ccccc2C(=O)N(Cc2ccccc2F)C1=O (centres undefined) | > 10.5 | > 10.5 | – |
| CCC1CCCCN1C(=O)COC(=O)c1cc(C(C)(C)C)cc(C(C)(C)C)c1 (centres undefined) | > 10 | > 10 | – |
| CC(C)c1ccc(-c2csc(NC(=O)c3cccc(NC(=O)C4CCCO4)c3)n2)cc1 (centres undefined) | > 10 | – | IC50 (PBLUC_HILL_SLOPE 15.4, PBLUC_R_SQUARED 0.296, read-out: LUCIFERASE INFECTION ASSAY - IC50): 9.87 µM |
| COc1ccc(C2C3CCc4ccccc4C3=NN2CCO)cc1 (centres undefined) | > 10.2 | – | IC50 (HEPG2TOX_HILL_SLOPE 8.7, HEPG2TOX_R_SQUARED 0.737, PBLUC_HILL_SLOPE 7.39, PBLUC_R_SQUARED 0.683, read-out: LUCIFERASE INFECTION ASSAY - IC50): > 10.2 µM |
| CC(C)(C)c1ccc(C(=O)Nc2nonc2-c2ccc(F)cc2)cc1 | > 9.72 | > 9.72 | – |
| C/C(=N\NC(=S)NCC(C)(C)C)c1cc(F)cc(Cl)c1O | > 9.94 | – | IC50 (PBLUC_HILL_SLOPE 12.9, PBLUC_R_SQUARED 0.356, read-out: LUCIFERASE INFECTION ASSAY - IC50): 9.7 µM |
| COC(=O)C1=C(Sc2ccc(Cl)cc2)CSC1 | > 11.5 | – | IC50 (PBLUC_HILL_SLOPE 0.458, PBLUC_R_SQUARED 0.122, read-out: LUCIFERASE INFECTION ASSAY - IC50): > 11.5 µM |
| CC(C)CC(=O)NC(=S)Nc1ccc(S(=O)(=O)N(C)Cc2ccccc2)cc1 | 4.58 | – | IC50 (HEPG2TOX_HILL_SLOPE 1.27, HEPG2TOX_R_SQUARED 0.987, PBLUC_HILL_SLOPE 1.32, PBLUC_R_SQUARED 0.74, read-out: LUCIFERASE INFECTION ASSAY - IC50): 0.868 µM |
| Cc1noc(C)c1CSc1ccccc1C(=O)NNC(=O)c1ccc2ccccc2n1 | 6.77 | – | IC50 (HEPG2TOX_HILL_SLOPE 3.33, HEPG2TOX_R_SQUARED 0.906, PBLUC_HILL_SLOPE 141, PBLUC_R_SQUARED 0.0106, read-out: LUCIFERASE INFECTION ASSAY - IC50): 6.66 µM |
| CNC(=O)CN(C)Cc1c(O)c(C(=O)NCc2ccccc2)cc2ccccc12 | > 10 | – | IC50 (PBLUC_HILL_SLOPE 3.62, PBLUC_R_SQUARED 0.233, read-out: LUCIFERASE INFECTION ASSAY - IC50): 8.75 µM |
| CN(CC(=O)Nc1ccccc1N1CCCC1)Cc1ccc2ccccc2c1 | 0.646 | – | IC50 (HEPG2TOX_HILL_SLOPE 0.547, HEPG2TOX_R_SQUARED 0.872, PBLUC_HILL_SLOPE 2.05, PBLUC_R_SQUARED 0.897, read-out: LUCIFERASE INFECTION ASSAY - IC50): 0.221 µM |
| C#CCOc1ccccc1/C=C1\SC(NC2CCCCC2)=NC1=O | 0.4 | – | IC50 (HEPG2TOX_HILL_SLOPE 10.3, HEPG2TOX_R_SQUARED 0.343, PBLUC_HILL_SLOPE 2.57, PBLUC_R_SQUARED 0.554, read-out: LUCIFERASE INFECTION ASSAY - IC50): 0.17 µM |
